In patent US6346535B1, “Fungicidal mixtures” (American Cyanamid Company, priority 1999, dated 2002):

Experiments:
Assay type in all cases: in vivo
[1] = tested on: Blumeria graminis on wheat; assay: Greenhouse trial, 3 day protective, Blumeria graminis on wheat; settings: Table V, compound alone
Text: (§1) The fungicides are applied in single treatments, or in a combination comprising a benzophenone of formula I and a compound selected from (A) through (E) as defined above. The compounds are applied in form of an aqueous spray mix obtained from a concentrated formulation or the technical material.
(§2) 1. Seed is planted in 6 cm diameter plastic pots and maintained in the greenhouse.
(§3) 2. When the primary leaf is fully expanded (in the case of cereals) or several leaves are present (in the case of dicots), formulated test compounds are sprayed with a three nozzle overhead fungicide sprayer to near run-off. Alternatively, a single nozzle overhead track sprayer is used for application of the compounds to cereals at a rate of 200 liters/ha (l/ha). Plants are then allowed to air-dry.
(§4) 3. Inoculation precedes treatment in the case of curative evaluations and follows treatment in case of residual evaluations. For inoculation of powdery mildew disease, plants are set up on greenhouse benches with bottom watering mats and inoculated by dusting them with conidia from infected plants. Between inoculation and treatment for curative evaluations and between treatment and inoculation for residual evaluations, plants are maintained in the greenhouse with bottom watering. For inoculation of non-powdery mildew diseases, an aqueous spore suspension of the pathogen is applied to the plant and the plants are kept 1-2 days in a moist infection chamber before being returned to the greenhouse where they are maintained by bottom watering.
(§5) 4. Disease on the foliage as percent leaf area with disease symptoms/signs is evaluated about 7 days after inoculation. In the case of wheat, the tips and bases of the leaves are excluded from the evaluation. [formula]
(§6) 1. Technical compounds are formulated in a solvent/surfactant system consisting of 5% acetone and 0.05% Tween 20 in deionized water. Compounds are dissolved in acetone prior to addition of the water; the Tween 20 can be added through either the acetone or the water. Dilutions are made using the solvent/surfactant system. Formulated compounds are prepared using deionized water.
(§7) Assessments of the diseases took place at the indicated day after the application of the compounds. Per cent infected leaf area infected was evaluated. The efficacy of the compounds/compounds mixtures to control the diseases was calculated by using the formula given above under item 4: […]
(§8) Synergy of a fungicide mixture was determined by comparing the actual (observed) fungicidal activity of the mixture to the expected fungicidal activity of the mixture as calculated using the COLBY formula given hereinabove.
Fungicidal Efficacy of the Mixture of BP-5+Triforine (3 Day Protective) Against Blumeria graminis on Wheat
Fungicidal Efficacy of the Mixture of BP-1+Triadimefon (3 Day Protective) Against Blumeria graminis on Wheat

[2] = tested on: Cercospora beticola; assay: Field trial against the sugar beet disease Cercospora beticola; settings: Table XIX, compound alone
Method: The trials are carried out under greenhouse (Examples 1 to 18) or field conditions (Example 19) in residual or curative applications. The fungicides are applied in single treatments, or in a combination comprising a benzophenone of formula I and a compound selected from (A) through (E) as defined above. The compounds are applied in form of an aqueous spray mix obtained from a concentrated formulation or the technical material. For the field study formulated benzophenones BP-1 through BP-4 and formulated compounds from (A) through (E) were used. The compounds are applied according to good agricultural practice in form of an aqueous spray mix obtained from concentrated formulation or the technical material at a rate of 400 l/ha. The disease control is evaluated according to the formula given for the greenhouse tests. Fungicidal Efficacy of the Mixture of BP-1+Metconazole in the Field Against the Sugar Beet Disease Cercospora beticola The tank mix was obtained from a SC formulation containing 100 g of BP-1 per liter and a SL formulation containing 60 g of metconazole per liter.

[3] = tested on: Blumeria graminis on wheat; assay: Greenhouse trial, 4 day curative, Blumeria graminis on wheat; settings: compound alone
Method: The trials are carried out under greenhouse (Examples 1 to 18) or field conditions (Example 19) in residual or curative applications. The fungicides are applied in single treatments, or in a combination comprising a benzophenone of formula I and a compound selected from (A) through (E) as defined above. The compounds are applied in form of an aqueous spray mix obtained from a concentrated formulation or the technical material. […] Seed is planted in 6 cm diameter plastic pots and maintained in the greenhouse. […] When the primary leaf is fully expanded (in the case of cereals) or several leaves are present (in the case of dicots), formulated test compounds are sprayed with a three nozzle overhead fungicide sprayer to near run-off. Alternatively, a single nozzle overhead track sprayer is used for application of the compounds to cereals at a rate of 200 liters/ha (l/ha). Plants are then allowed to air-dry. […] Inoculation precedes treatment in the case of curative evaluations and follows treatment in case of residual evaluations. For inoculation of powdery mildew disease, plants are set up on greenhouse benches with bottom watering mats and inoculated by dusting them with conidia from infected plants. Between inoculation and treatment for curative evaluations and between treatment and inoculation for residual evaluations, plants are maintained in the greenhouse with bottom watering. For inoculation of non-powdery mildew diseases, an aqueous spore suspension of the pathogen is applied to the plant and the plants are kept 1-2 days in a moist infection chamber before being returned to the greenhouse where they are maintained by bottom watering. […] Disease on the foliage as percent leaf area with disease symptoms/signs is evaluated about 7 days after inoculation. In the case of wheat, the tips and bases of the leaves are excluded from the evaluation. [formula] […] Compounds are dissolved in acetone prior to addition of the water; the Tween 20 can be added through either the acetone or the water. Dilutions are made using the solvent/surfactant system. Formulated compounds are prepared using deionized water. Assessments of the diseases took place at the indicated day after the application of the compounds. Per cent infected leaf area infected was evaluated. […] Synergy of a fungicide mixture was determined by comparing the actual (observed) fungicidal activity of the mixture to the expected fungicidal activity of the mixture as calculated using the COLBY formula given hereinabove.

[4] = tested on: Erysiphe cichoracearum on cucumbers; assay: Greenhouse trial, 4 day residual, Erysiphe cichoracearum on cucumbers; settings: Golovinomyces cichoracearum, 96 h, Table XI, compound alone, read-out: Observed Efficacy
In short: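 Cucumber plants were sprayed to near run-off with compounds or mixtures (5% acetone/0.05% Tween 20 aqueous). Four days later they were inoculated by dusting with Erysiphe cichoracearum conidia. Percent diseased leaf area was assessed about 7 days after inoculation, and efficacy and Colby synergy were calculated from it.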

[5] = tested on: Pyrenophora teres on barley; assay: Greenhouse trial, 4 day residual, Pyrenophora teres on barley; settings: Pyrenophora teres, 96 h, Table XIII (Example 13), 4 day residual, read-out: Observed Efficacy
Text: as §1, §2, §3, §4, §5, §6, §7, §8
Fungicidal Efficacy of the Mixture of BP-4+Other Fungicides (4 Day Residual) Against Pyrenophora teres on Barley

[6] = tested on: Blumeria graminis f. sp. tritici on wheat; assay: Greenhouse trial, 2 day curative, Blumeria graminis f. sp. tritici on wheat; settings: Table XVII, compound alone
Method: as §1, with “The trials are carried out under greenhouse (Examples 1 to 18) or field conditions (Example 19) in residual or curative applications. The fungicides” for “The fungicides”
as §2, §3, §4, §5, §6, §7, §8
Fungicidal Efficacy of the Mixture of Different Benzophenones+Metconazole (2 Day Curative) Against Blumeria graminis f. sp. tritici on Wheat
The tank mixes were obtained from technical material of the benzophenones BP-2 and BP-4 and metconazole.

SMILES	Observed Efficacy ([1]; dose rate 1 ppm)	Observed Efficacy ([1]; dose rate 5 ppm)	Observed Efficacy ([2]; dose rate 250 g/ha)	Observed Efficacy ([3]; Table I, dose rate 25 ppm)	Observed Efficacy ([3]; Table I, dose rate 125 ppm)	Observed Efficacy ([3]; Table II, dose rate 25 ppm)	Observed Efficacy ([3]; Table II, dose rate 125 ppm)	Observed Efficacy ([3]; Table III, dose rate 25 ppm)	Observed Efficacy ([3]; Table III, dose rate 125 ppm)	pest or weed control at 0.4 ppm ([4]; dose rate 0.4 ppm)	pest or weed control at 10 ppm ([4]; dose rate 10 ppm)	pest or weed control at 50 ppm ([4]; dose rate 50 ppm)	Observed Efficacy ([2]; dose rate 90 g/ha)	pest or weed control at 0.4 ppm ([5]; dose rate 0.4 ppm)	pest or weed control at 10 ppm ([5]; dose rate 10 ppm)	Observed Efficacy ([6]; dose rate 0.33 ppm)	Observed Efficacy ([6]; dose rate 1 ppm)	Observed Efficacy ([6]; dose rate 3 ppm)	Observed Efficacy ([6]; dose rate 9 ppm)	Observed Efficacy ([6]; dose rate 27 ppm)
CCCCOc1c(OC)c(OC)cc(C)c1C(=O)c1c(Cl)cccc1Cl [BP-1, 6′-butoxy-2,6-dichloro-4′,5′-dimethoxy-2′-methylbenzophenone]	44%	78%	42.5%	1%	42%	1%	42%	1%	42%	–	–	–	–	–	–	–	–	–	–	–
CC1(C)CCC(Cc2ccc(Cl)cc2)C1(O)Cn1cncn1 (centres unmarked) [Metconazole]	–	–	–	–	–	–	–	–	–	2%	75%	99%	58%	0%	47%	0%	2%	7%	14%	40%
